Experimental data from patent US4588587A, “Method of treatment to inhibit metastasis” (Pennsylvania Hospital, priority 1983, dated 1986).

Test system: T241 sarcoma cells
Assay: Lung and mediastinal tumor colonization after intravenous injection of T241 sarcoma cells
Format: in vivo, mice
Experimental: Sarcoma T241 (12), a dimethylbenzanthracene-induced tumor originally derived from a C57BL/6 mouse, was maintained as ascitic tumor in syngeneic C57BL/6 mice or B6AF1 compatible hybrids (Jackson Laboratory, Bar Harbor, Me.). The capacity of the cells of this tumor to induce platelet aggregation and coagulation was assayed in a conventional manner. […] The tumor cells, however, did display a moderate procoagulant activity as reflected by a shortened recalcified clotting time. The addition of 10^6 T241 cells to syngeneic citrated plasma reduced the clotting time to between 1/3 and 1/2 control levels. Another known property of these cells is the capacity to degrade type IV collagen.
Lung tumor colonies were induced by the intravenous injection of T241 sarcoma cells. One week-old ascitic tumor cells were separated by centrifugation (100 g for 10 min) at 4° C., washed twice with Hanks' solution and suspended in the same medium (125,000-250,000 cells per ml). The suspension contained monodispersed cells of high viability (95%). Two tenths of one ml of the suspension containing 25,000 or 50,000 cells were injected intravenously into male or female C57BL/6 mice (about 25 g), and into B6AF1 mice (25-30 g), respectively, the animals housed under identical conditions of temperature, photoperiodicity, and feeding, were killed 20 days later and the number of metastases counted with a Bausch & Lomb dissecting microscope.
Two tenths of one ml of extract or semipurified fractions (100-400 ug of protein) were injected intravenously through the tail vein two hours before and two and four hours after receiving the tumor cell inoculation. Controls were similarly injected, but with 20 mM Hepes, 10 mM CaCl2, pH 7.8 aqueous solution. Additional controls were treated with either one intravenous injection of 15 units of heparin (Elkins-Sinn, Cherry Hill, N.J.) or 2 units of Bothrops atrox venom (Atroxin, Sigma, St. Louis, Mo.) in 0.2 ml of saline given 1 hour before tumor inoculation.

[1] = C57BL/6J mice, T241 cells i.v., killed 20 days later

Substance: heparin
- Percentage of Mice with Tumors, Lung [1]: 100 Percentage
- Percentage of Mice with Tumors, Mediastinal [1]: 80 Percentage
- Lung Tumors per Mouse, Median (C57BL/6J mice, excluding mice without lung tumors): 5
- Diameter of Lung Tumors (C57BL/6J mice, mean and S.E.M., excluding mice without lung tumors): 2.2 ± 0.1 mm
- antimetastatic effect on lung and mediastinal tumors (in words) (T241 sarcoma cells i.v. in mice): reduced only slightly
- antimetastatic effect at much higher doses given more frequently (compared with the extract): could not be reproduced
